Data reported in patent publication US20230390384A1 (priority 2020, published 2023).
Entries after “also recorded” stand apart in the source; their conditions may differ.

Tested on: RBD, a South African mutant antigen of COVID-19
Set-up: species or system SARS-CoV-2
Conditions: in vivo

Row | Substance | antigen-specific antibody titer (RBD South African mutant)
1 | FSL-1 | higher antibody titer; also recorded: highest antibody titer
2 | N-palmitoyl-S-[2,3-bis(palmitoyloxy)-(2RS)-propyl]-[R]-cystein-SKKKK [Pam3CSK4] | higher antibody titer; also recorded: highest antibody titer
